According to PubChem BioAssay AID2060484 (Molecular Pharmacology Branch, DTP, NCI, 2025):

System: SUM149PT spheroids with HUVEC/MSC, viability
Test: Anticancer human tumor SUM149PT cell line growth inhibition [GQUAD];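 further: spheroids exposed to drugs for seven days before readout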;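 on viability, T/C: percent viability relative to DMSO vehicle control taken as 100%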
Settings: for IC50: curve of first compound; for viability, T/C: stronger effect = lower value
Excerpt: DNA G-quadruplex Stabilizer Agents in Combinations in Complex Spheroids
A high-throughput screen of multi-cell type tumor spheroids was designed to identify active combinations of DNA G-quadruplex stabilizer agents and targeted small molecules. Complex spheroids include a stromal component modeled by human endothelial cells (HUVEC) and fibroblasts modeled by human mesenchymal stem cells (MSCs). The concentration ranges selected for each drug and investigational agent were based upon clinically achievable concentrations if the clinical Cmax of the agent was known.
Compounds. The drugs and investigational agents: pidnarulex (CX-5461; NSC782164), APTO-253 (NSC789042), BRACO-19 (NSC847499), peposertib (NSC802822), ceralasertib (NSC780249), elimusertib (NSC800525), camonsertib (NSC841442), AZD-1390 (NSC803789), olaparib (NSC753686), talazoparib (NSC767125), ART-558 (NSC835418), sotorasib (NSC818433), MRTX-1133 (NSC836407), SN-38 (NSC673596), topotecan (NSC609699), etoposide (NSC141540), doxorubicin (NSC123127), gemcitabine (NSC613327), 5-fluorouracil (NSC19893), paclitaxel (NSC125973), vemurafenib (NSC761431), panobinostat (NSC761190), R-306465 (JNJ-16241199; NSC773264), adavosertib (NSC754352), TP-3654 (NSC805149), carboplatin (NSC241240), KSQ-4279 (NSC840948), and staurosporine (NSC755774) were obtained from the National Cancer Institute (NCI) Developmental Therapeutics Program Chemical Repository (34). The FDA-approved anticancer drug set is available from the NCI Developmental Therapeutics Program. […] The stock solutions were prepared in dimethyl sulfoxide (DMSO, Sigma-Aldrich, St. Louis, MO, cat. D2650) at 800-fold the tested concentration and stored at -70 degrees C prior to their use. All drugs and investigational agents were tested over a range starting from a high concentration at or near the clinical Cmax and decreasing in half-log increments. If the clinical Cmax for an agent had not been determined, the highest concentration tested was 10 microM.
2.3 Cell Culture. All cells were maintained in an incubator at 37 degrees C and 5% CO2 with 95% humidity. The PDC lines were cultured according to standard operating procedures established by the NCI PDMR. All PDCs were thawed and cultured in Matrigel-coated flasks prepared with a working solution of 1X Ham's F-12 nutrient mix, without supplementation (Invitrogen, cat. 11765054), 100 U/mL penicillin-streptomycin (Invitrogen, cat. 15140122), and 2.5% Matrigel (Corning Inc., cat. 354248) for the first three passages. The 857933-349-R-J2-PDC line was cultured in 6C/Colon 1B media, which includes advanced DMEM/F-12 (Thermo Fisher Scientific, cat. 12634028), 10 mM HEPES (Thermo Fisher Scientific, cat. 15630080), 1X GlutaMAX supplement (Thermo Fisher Scientific, cat. 35050061), 0.1 mg/mL primocin (InvivoGen, cat. ant-pm-2), 10% defined fetal bovine serum, heat inactivated (HyClone Laboratories Inc., cat. SH30070.03HI), 50% L-WRN conditioned media (ATCC, cat. CRL-3276), 1.25 mM N-Acetyl-L-cysteine (Sigma-Aldrich, cat. A9165), 10 mM nicotinamide (Sigma-Aldrich, cat. N0636), 1X B-27 supplement (Thermo Fisher Scientific, cat. 17504044), 1X N-2 supplement (Thermo Fisher Scientific, cat. 17502048), 10 microM Y-27632 dihydrochloride (Tocris Bioscience, cat. 1254), and 50 ng/mL human EGF recombinant protein (Thermo Fisher Scientific, cat. PHG0311). The 485176-168-R4-J1-PDC line was cultured in Panc media, which includes all 6C/Colon 1B media components plus 100 ng/mL human FGF-10 (Thermo Fisher Scientific, cat. 100-26), 500 nM SB-431542 (Selleckchem, cat. S1067), and gastrin (Tocris, cat. 3006).
[…]

[1] = second compound 0.0316 µM, first compound 0.0316 µM
[2] = second compound 0.0316 µM, first compound 0.316 µM
[3] = second compound 0.1 µM, first compound 0.0316 µM
[4] = second compound 0.1 µM, first compound 0.316 µM
[5] = second compound 0.316 µM, first compound 0.0316 µM
[6] = second compound 0.316 µM, first compound 0.316 µM
[7] = second compound 1 µM, first compound 0.0316 µM
[8] = second compound 1 µM, first compound 0.316 µM
[9] = second compound 3.16 µM, first compound 0.0316 µM
[10] = second compound 3.16 µM, first compound 0.316 µM
[11] = second compound 10 µM, first compound 0.0316 µM
[12] = second compound 10 µM, first compound 0.316 µM

For C=CC(=O)N1CCN(c2nc(=O)n(-c3c(C)ccnc3C(C)C)c3nc(-c4c(O)cccc4F)c(F)cc23)C(C)C1 (centres undefined) + Cc1[nH]c2ccc(F)cc2c1-c1nc2c3cccnc3c3ncccc3c2[nH]1, the IC50 (second compound 0.0316 µM) was greater than 10000 nM, the IC50 (second compound 0.1 µM) was greater than 10000 nM and the IC50 (second compound 0.316 µM) was greater than 10000 nM. It also gave an IC50 (second compound 1 µM) greater than 10000 nM, an IC50 (second compound 3.16 µM) greater than 10000 nM and an IC50 (second compound 10 µM) greater than 10000 nM. For the same compound, the viability, T/C [1] was 106%, the viability, T/C (second compound 0.0316 µM, first compound 0.1 µM) was 91.6% and the viability, T/C [2] was 99.1%. For the same compound, the viability, T/C (second compound 0.0316 µM, first compound 1 µM) was 108%, the viability, T/C (second compound 0.0316 µM, first compound 3.16 µM) was 125% and the viability, T/C (second compound 0.0316 µM, first compound 10 µM) was 117%. For the same compound, the viability, T/C [3] was 116%, the viability, T/C (second compound 0.1 µM, first compound 0.1 µM) was 93.8% and the viability, T/C [4] was 111%. For the same compound, the viability, T/C (second compound 0.1 µM, first compound 1 µM) was 116%, the viability, T/C (second compound 0.1 µM, first compound 3.16 µM) was 124% and the viability, T/C (second compound 0.1 µM, first compound 10 µM) was 114%. The viability, T/C [5] was 94.3%, the viability, T/C (second compound 0.316 µM, first compound 0.1 µM) was 107% and the viability, T/C [6] was 95.6%. For the same compound, the viability, T/C (second compound 0.316 µM, first compound 1 µM) was 112%, the viability, T/C (second compound 0.316 µM, first compound 3.16 µM) was 122% and the viability, T/C (second compound 0.316 µM, first compound 10 µM) was 108%. For the same compound, the viability, T/C [7] was 97.9%, the viability, T/C (second compound 1 µM, first compound 0.1 µM) was 97.6% and the viability, T/C [8] was 112%. The viability, T/C (second compound 1 µM, first compound 1 µM) was 118%, the viability, T/C (second compound 1 µM, first compound 3.16 µM) was 120% and the viability, T/C (second compound 1 µM, first compound 10 µM) was 114%. It also gave a viability, T/C [9] of 99.7%, a viability, T/C (second compound 3.16 µM, first compound 0.1 µM) of 86% and a viability, T/C [10] of 102%. It also gave a viability, T/C (second compound 3.16 µM, first compound 1 µM) of 109%, a viability, T/C (second compound 3.16 µM, first compound 3.16 µM) of 115% and a viability, T/C (second compound 3.16 µM, first compound 10 µM) of 114%. It also gave a viability, T/C [11] of 92%, a viability, T/C (second compound 10 µM, first compound 0.1 µM) of 80.6% and a viability, T/C [12] of 100%. For the same compound, the viability, T/C (second compound 10 µM, first compound 1 µM) was 106%, the viability, T/C (second compound 10 µM, first compound 3.16 µM) was 111% and the viability, T/C (second compound 10 µM, first compound 10 µM) was 114%.
With CCc1c2c(nc3ccc(O)cc13)-c1cc3c(c(=O)n1C2)COC(=O)[C@]3(O)CC + Cc1[nH]c2ccc(F)cc2c1-c1nc2c3cccnc3c3ncccc3c2[nH]1 the IC50 (second compound 0.0316 µM) was 2.34 nM, the IC50 (second compound 0.1 µM) was 2.58 nM and the IC50 (second compound 0.316 µM) was 1.88 nM. For the same compound, the IC50 (second compound 1 µM) was 2.3 nM, the IC50 (second compound 3.16 µM) was 1.54 nM and the IC50 (second compound 10 µM) was less than 0.999 nM. For the same compound, the viability, T/C (second compound 0.0316 µM, first compound 0.000999 µM) was 67.2%, the viability, T/C (second compound 0.0316 µM, first compound 0.00316 µM) was 34.9% and the viability, T/C (second compound 0.0316 µM, first compound 0.00999 µM) was 43.4%. For the same compound, the viability, T/C [1] was 34.7%, the viability, T/C (second compound 0.0316 µM, first compound 0.0999 µM) was 32.4% and the viability, T/C [2] was 18.2%. For the same compound, the viability, T/C (second compound 0.1 µM, first compound 0.000999 µM) was 69.1%, the viability, T/C (second compound 0.1 µM, first compound 0.00316 µM) was 32.6% and the viability, T/C (second compound 0.1 µM, first compound 0.00999 µM) was 45.4%. For the same compound, the viability, T/C [3] was 34.2%, the viability, T/C (second compound 0.1 µM, first compound 0.0999 µM) was 27.8% and the viability, T/C [4] was 16.8%. It also gave a viability, T/C (second compound 0.316 µM, first compound 0.000999 µM) of 61.4%, a viability, T/C (second compound 0.316 µM, first compound 0.00316 µM) of 33.3% and a viability, T/C (second compound 0.316 µM, first compound 0.00999 µM) of 37.8%. It also gave a viability, T/C [5] of 38.2%, a viability, T/C (second compound 0.316 µM, first compound 0.0999 µM) of 27.2% and a viability, T/C [6] of 15.7%. For the same compound, the viability, T/C (second compound 1 µM, first compound 0.000999 µM) was 65.9%, the viability, T/C (second compound 1 µM, first compound 0.00316 µM) was 35.5% and the viability, T/C (second compound 1 µM, first compound 0.00999 µM) was 38.1%. For the same compound, the viability, T/C [7] was 40.8%, the viability, T/C (second compound 1 µM, first compound 0.0999 µM) was 25.5% and the viability, T/C [8] was 18.4%. For the same compound, the viability, T/C (second compound 3.16 µM, first compound 0.000999 µM) was 59.7%, the viability, T/C (second compound 3.16 µM, first compound 0.00316 µM) was 34.1% and the viability, T/C (second compound 3.16 µM, first compound 0.00999 µM) was 38.7%. The viability, T/C [9] was 39.7%, the viability, T/C (second compound 3.16 µM, first compound 0.0999 µM) was 27.6% and the viability, T/C [10] was 15.7%. It also gave a viability, T/C (second compound 10 µM, first compound 0.000999 µM) of 56.5%, a viability, T/C (second compound 10 µM, first compound 0.00316 µM) of 31.1% and a viability, T/C (second compound 10 µM, first compound 0.00999 µM) of 36.3%. For the same compound, the viability, T/C [11] was 39%, the viability, T/C (second compound 10 µM, first compound 0.0999 µM) was 25.3% and the viability, T/C [12] was 15.8%.
